Results taken from PubChem BioAssay (NCI).
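Method: 48-hour compound exposure of cells in 96-well plates, five concentrations, linear interpolation of endpoints. TGI: total growth inhibition.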

How the values were obtained:
Assay in all cases: growth of human tumour cells (NCI), 48 h
OVCAR-3 ovarian = system: OVCAR-3 ovarian
U251 CNS = system: U251 CNS
MALME-3M melanoma = system: MALME-3M melanoma
SF-295 CNS = system: SF-295 CNS
RXF 393 renal = system: RXF 393 renal
SK-MEL-2 melanoma = system: SK-MEL-2 melanoma
OVCAR-5 ovarian = system: OVCAR-5 ovarian
SNB-19 CNS = system: SNB-19 CNS
NCI-H226 lung = system: NCI-H226 lung
MOLT-4 leukemia = system: MOLT-4 leukemia
SR leukemia = system: SR leukemia
SN12C renal = system: SN12C renal
MDA-MB-231 breast = system: MDA-MB-231 breast
OVCAR-4 ovarian = system: OVCAR-4 ovarian
786-0 renal = system: 786-0 renal
M14 melanoma = system: M14 melanoma
SNB-75 CNS = system: SNB-75 CNS
TK-10 renal = system: TK-10 renal
BT-549 breast = system: BT-549 breast
HOP-92 NSCLC = system: HOP-92 NSCLC
NCI-H460 lung = system: NCI-H460 lung
ACHN renal = system: ACHN renal
NCI/ADR-RES ovarian = system: NCI/ADR-RES ovarian
NCI-H23 lung = system: NCI-H23 lung
HCC-2998 colon = system: HCC-2998 colon
NCI-H522 lung = system: NCI-H522 lung
MDA-N = system: MDA-N
UACC-257 melanoma = system: UACC-257 melanoma
EKVX NSCLC = system: EKVX NSCLC
CAKI-1 renal = system: CAKI-1 renal
MDA-MB-435 = system: MDA-MB-435
SK-MEL-28 melanoma = system: SK-MEL-28 melanoma
HCT-15 colon = system: HCT-15 colon
LOX IMVI melanoma = system: LOX IMVI melanoma
SK-OV-3 ovarian = system: SK-OV-3 ovarian
COLO 205 colon = system: COLO 205 colon
RPMI-8226 leukemia = system: RPMI-8226 leukemia
DU-145 prostate = system: DU-145 prostate
SW-620 colon = system: SW-620 colon
PC-3 prostate = system: PC-3 prostate
IGROV1 ovarian = system: IGROV1 ovarian
A549 NSCLC = system: A549 NSCLC
HOP-62 NSCLC = system: HOP-62 NSCLC
SK-MEL-5 melanoma = system: SK-MEL-5 melanoma
KM12 colon = system: KM12 colon
SF-539 CNS = system: SF-539 CNS
K-562 leukemia = system: K-562 leukemia
UACC-62 melanoma = system: UACC-62 melanoma
HS 578T breast = system: HS 578T breast
SF-268 CNS = system: SF-268 CNS
UO-31 renal = system: UO-31 renal
HT29 colon = system: HT29 colon
CCRF-CEM leukemia = system: CCRF-CEM leukemia
A498 renal = system: A498 renal
HL-60(TB) leukemia = system: HL-60(TB) leukemia
T-47D breast = system: T-47D breast
OVCAR-8 ovarian = system: OVCAR-8 ovarian
MCF7 breast = system: MCF7 breast
HCT-116 colon = system: HCT-116 colon

## NC(=O)c1ccc(NCC2=CC(=O)C=CC2=O)cc1
OVCAR-3 ovarian
  TGI: 31 µM
U251 CNS
  TGI: 45.1 µM
MALME-3M melanoma
  TGI: 36.6 µM
SF-295 CNS
  TGI: > 100 µM
RXF 393 renal
  TGI: 41 µM
SK-MEL-2 melanoma
  TGI: 39.8 µM
OVCAR-5 ovarian
  TGI: 52.9 µM
SNB-19 CNS
  TGI: > 100 µM
NCI-H226 lung
  TGI: > 100 µM
MOLT-4 leukemia
  TGI: 67.9 µM
SR leukemia
  TGI: 56.4 µM
SN12C renal
  TGI: 41.3 µM
MDA-MB-231 breast
  TGI: 37.5 µM
OVCAR-4 ovarian
  TGI: 42.4 µM
786-0 renal
  TGI: 38.5 µM
M14 melanoma
  TGI: 31.3 µM
SNB-75 CNS
  TGI: 36.2 µM
TK-10 renal
  TGI: 32.7 µM
BT-549 breast
  TGI: 36.2 µM
HOP-92 NSCLC
  TGI: 40.7 µM
NCI-H460 lung
  TGI: > 100 µM
ACHN renal
  TGI: 31.6 µM
NCI/ADR-RES ovarian
  TGI: 71.4 µM
NCI-H23 lung
  TGI: 51.7 µM
HCC-2998 colon
  TGI: > 100 µM
NCI-H522 lung
  TGI: 47.5 µM
MDA-N
  TGI: 31.8 µM
UACC-257 melanoma
  TGI: 43.1 µM
EKVX NSCLC
  TGI: 34.3 µM
CAKI-1 renal
  TGI: 34.2 µM
MDA-MB-435
  TGI: 32.1 µM
SK-MEL-28 melanoma
  TGI: 36.9 µM
HCT-15 colon
  TGI: 38.3 µM
LOX IMVI melanoma
  TGI: 32.5 µM
SK-OV-3 ovarian
  TGI: > 100 µM
COLO 205 colon
  TGI: 36.2 µM
RPMI-8226 leukemia
  TGI: 54.6 µM
DU-145 prostate
  TGI: > 100 µM
SW-620 colon
  TGI: 44 µM
PC-3 prostate
  TGI: 32.7 µM
IGROV1 ovarian
  TGI: 44.7 µM
A549 NSCLC
  TGI: > 100 µM
HOP-62 NSCLC
  TGI: > 100 µM
SK-MEL-5 melanoma
  TGI: 30.2 µM
KM12 colon
  TGI: > 100 µM
SF-539 CNS
  TGI: 32.9 µM
K-562 leukemia
  TGI: 49.1 µM
UACC-62 melanoma
  TGI: 35.6 µM
HS 578T breast
  TGI: 75.2 µM
SF-268 CNS
  TGI: 50.9 µM
UO-31 renal
  TGI: 31.8 µM
HT29 colon
  TGI: 47.7 µM
CCRF-CEM leukemia
  TGI: 50.8 µM
A498 renal
  TGI: > 100 µM
HL-60(TB) leukemia
  TGI: 30.3 µM
T-47D breast
  TGI: 68.9 µM
OVCAR-8 ovarian
  TGI: 50.7 µM
MCF7 breast
  TGI: 59.1 µM
HCT-116 colon
  TGI: 36.1 µM

## N=C(N)CCNC(=O)C1CCC(N)=N1 (stereo not drawn)
OVCAR-3 ovarian
  TGI: > 41.9 µM
U251 CNS
  TGI: > 100 µM
MALME-3M melanoma
  TGI: > 61.6 µM
SF-295 CNS
  TGI: > 86.2 µM
RXF 393 renal
  TGI: > 94.4 µM
SK-MEL-2 melanoma
  TGI: > 78.7 µM
OVCAR-5 ovarian
  TGI: > 96.6 µM
SNB-19 CNS
  TGI: > 100 µM
NCI-H226 lung
  TGI: > 63.8 µM
MOLT-4 leukemia
  TGI: > 78.8 µM
SR leukemia
  TGI: > 100 µM
SN12C renal
  TGI: 68.3 µM
MDA-MB-231 breast
  TGI: > 79.3 µM
OVCAR-4 ovarian
  TGI: 81.3 µM
786-0 renal
  TGI: > 95.7 µM
M14 melanoma
  TGI: 98.1 µM
SNB-75 CNS
  TGI: 60.4 µM
TK-10 renal
  TGI: > 90.4 µM
BT-549 breast
  TGI: > 100 µM
HOP-92 NSCLC
  TGI: > 67.8 µM
NCI-H460 lung
  TGI: > 82.1 µM
ACHN renal
  TGI: > 100 µM
NCI/ADR-RES ovarian
  TGI: > 100 µM
NCI-H23 lung
  TGI: > 93.3 µM
HCC-2998 colon
  TGI: > 36.2 µM
NCI-H522 lung
  TGI: > 92.9 µM
MDA-N
  TGI: > 100 µM
UACC-257 melanoma
  TGI: > 81.1 µM
EKVX NSCLC
  TGI: > 89.7 µM
CAKI-1 renal
  TGI: > 100 µM
MDA-MB-435
  TGI: > 100 µM
SK-MEL-28 melanoma
  TGI: > 100 µM
HCT-15 colon
  TGI: > 100 µM
LOX IMVI melanoma
  TGI: > 100 µM
SK-OV-3 ovarian
  TGI: > 69.3 µM
COLO 205 colon
  TGI: > 59 µM
RPMI-8226 leukemia
  TGI: > 100 µM
DU-145 prostate
  TGI: > 65.6 µM
SW-620 colon
  TGI: > 100 µM
PC-3 prostate
  TGI: > 64.6 µM
IGROV1 ovarian
  TGI: > 100 µM
A549 NSCLC
  TGI: > 61.2 µM
HOP-62 NSCLC
  TGI: > 48.2 µM
SK-MEL-5 melanoma
  TGI: > 61.9 µM
KM12 colon
  TGI: > 100 µM
SF-539 CNS
  TGI: > 43.2 µM
K-562 leukemia
  TGI: > 100 µM
UACC-62 melanoma
  TGI: > 100 µM
HS 578T breast
  TGI: 65.5 µM
SF-268 CNS
  TGI: > 93 µM
UO-31 renal
  TGI: > 80.1 µM
HT29 colon
  TGI: > 84.5 µM
CCRF-CEM leukemia
  TGI: > 80.5 µM
A498 renal
  TGI: 85.9 µM
HL-60(TB) leukemia
  TGI: > 87.4 µM
T-47D breast
  TGI: > 59.7 µM
OVCAR-8 ovarian
  TGI: > 100 µM
MCF7 breast
  TGI: > 100 µM
HCT-116 colon
  TGI: > 91 µM
